Measurements reported in US6939864B1, “Animal feed compositions and methods of using the same” (Purdue Research Foundation, priority 2001, dated 2005).

Key:
[1] = tested on: serum cortisol (CS), ACTH and tumor necrosis factor-alpha (TNF); assay: Porcine study: serum ACTH, cortisol and TNF, basal and after I.V. LPS challenge; assay type: in vivo, pigs; settings: I.V. LPS 150 ug/kg, day 14 postweaning
Source text: The objective of this study was to evaluate the potential benefit of supplementing the neonatal pig with Vitamin C (VC) and/or Beta-glucan (BG). Thirty-two crossbred pigs were selected at birth and assigned to one of four dietary treatment groups (n=8/group). Beginning on the day of birth, pigs received their respective treatments via an oral gavage on a daily basis until weaning at 2 weeks of age. Dietary treatment groups included Control (Con; no VC or BG), VC (75 ppm), BG (0.312 g/kg body weight) and VC+BG (75 ppm and 0.312 g/kg body weight). After weaning, pigs were placed on a starter ration containing their respective dietary treatments and a Phase 1 diet specific for the University of Missouri Swine unit for a 2 week period. Body weights were recorded every 3 days to adjust dietary treatment doses. On day 14 postweaning, blood samples were collected at 30-min intervals for one hour followed by an I.V. injection of lipopolysaccharide (LPS; 150 ug/kg). LPS is part of bacterial cell walls that initiates the immune response. Blood samples were collected at 30-min intervals for an additional 3-hour period following the LPS challenge. Blood samples were analyzed for serum cortisol (CS), ACTH and tumor necrosis factor-alpha (TNF) which are indicators of acute stress response to challenge (LPS).

[2] = Calf study: body weight change and fecal scores; assay type: in vivo, calves; settings: mean ±SE
Procedure: Three days after they were born, calves were started on all milk, milk replacer. The calves were assigned randomly to one of four treatment groups control, β-glucan, Vitamin C, and β-glucan and Vitamin C. Each treatment is represented in a block (1 block has 4 calves and each room has 3 blocks). Initial weight and temperature were taken when calves were placed on study, then weekly for six more weeks.
Fecal scores, nasal and ocular discharges were recorded daily along with room temperature and humidity. Blood samples were taken every week for seven weeks; 10 ml heparinized tube for plasma to measure cortisol and ascorbic acid; 5 ml sodium citrate tube for hematocrits, granulocytes, lymphocytes and fibrinogen.
Calves were fed milk replacer equaling 10% of their body weight per day, which was given in two equal rations (morning and afternoon). Dry milk replacer was equal to 12.5% of amount fed. Calves on treatment […] were given β-glucan equaling 0.3125% of total intake. Calves on treatment 3 and 4 received 250 mg of Vitamin C twice a day.

Molecule	TNF response to the LPS challenge [1]	CS response to the LPS challenge ([1]; compared to Con group)	Mean BW change ([2]; dairy calves on milk replacer)	mean fecal scores ([2]; scale of 1–4, 1=solid and 4=fluid)
O=C1O[C@H]([C@@H](O)CO)C(O)=C1O [VC, ascorbic acid]	more rapid decline in serum TNF	lower		
ascorbyl-2-polyphosphonate [AA]			1.48±0.12 kg/wk	1.48±0.03
